Experimental data from EP0327365B1, “Improvements in or relating to modified haptens useful as imaging and therapeutic agents” (HYBRITECH INCORPORATED, priority 1988, dated 1989).

Assays:
antibody CHA255 = assay: Antibody CHA255 binding assay (Centrifree ultrafiltration); set-up: species or system BALB/c mice; details: ⁹⁰Y³⁺ or ¹¹¹In³⁺ chelate of DTPA alone
Protocol: As indicated, the monoclonal antibody CHA255 is specific for the In³⁺-benzyl EDTA complex. The affinity and characterization have been described previously in Nature, 316, 265 (1985). Binding assays were performed to verify the identity of the haptens designated as DB-I to DB-VIII. […] For the ⁹⁰Y³⁺ hapten chelate, in particular, CHA255 binding required the presence of the In-benzyl-EDTA moiety as provided in the compounds of the invention. The labeled DB hapten chelates were combined with antibody CHA255 in PBS (10 mM sodium phosphate, 150 mM sodium chloride, pH 7.4) containing 44 »g/ml of human serum albumin and 0.05% Triton-X-100 detergent. Concentrations of the radiolabeled hapten chelating agent and antibody are 5 nM and 133 nM, respectively. The mixture is vortexed and allowed to stand at room temperature for 15 minutes, after which it is transferred to an Amicon Centrifree™ device, with a NMW limit of 30,000, and centrifuged to separate antibody-bound chelate from free hapten chelate. The species bound to the antibody is retained by the membrane and the free chelate flows through the membrane into the filtrate. The extent of antibody-hapten chelate binding is then determined.

T-380 tumors [1] = assay: Hapten biodistribution, premix protocol with bifunctional antibody ECH037.2; format: in vivo, nude mice; set-up: TOTAL RECOV: unit not given here; details: for % DOSE PER GRAM, KIDNEY / % DOSE PER GRAM, LIVER / % DOSE PER GRAM, TUMOR / FECES / TOTAL RECOV / URINE / % DOSE PER GRAM, BLOOD / TUMOR/BLOOD: premix with 20 µg ECH037.2; for % DOSE PER GRAM, BLOOD: 111In-labeled hapten i.v.; for TUMOR/BLOOD: ratio; for Percent Injected Dose in Feces: premix protocol (Table VI)
[2] = Aqueous solubility (observation during synthesis); format: physicochemical; details: metal-free chelating agent, in words
[3] = test system: monoclonal antibody CHA255; assay: Determination of hapten-antibody dissociation rates; format: binding, BALB/c mice; details: 22°C; indium complex of hapten from CHA255 after 100 fold excess of indium-115 loaded hapten
Summary of the method: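 Antibody and ¹¹¹In-traced indium-loaded hapten, each at 160 nM, in PBS pH 7.2 with 1.5 mg/mL human serum albumin, chased with indium-115 hapten at a final 32 μM, at 22±1° C. Free hapten separated by centrifugal ultrafiltration at six timepoints in duplicate over about two half-lives. Rate constants taken from log relative complex concentration versus time.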

T-380 tumors [4] = assay: Hapten biodistribution, prelocalization protocol with bifunctional antibody ECH037.2; format: in vivo, nude mice
Protocol: Two protocols were used for examining the biodistribution of the derivatized haptens in the presence of the bifunctional antibody ECH037.2. In a premix protocol, ECH037.2 and the derivatized hapten were combined prior to injection in the animals. In the prelocalization protocol, ECH037.2 was injected into the animals, and the antibody was allowed to prelocalize for 24 hours prior to injection of the radiolabeled hapten.
Biodistribution studies were performed in nude mice carrying subcutaneous implants of the human colon carcinoma cell line T-380 which expresses the carcinoembryonic antigen (CEA) recognized by ECH037.2. Briefly, Balb/C Nu/Nu mice were injected subcutaneously with a minced preparation of T-380 tumor implants and maintained for approximately two weeks, or until the tumor implant had grown to a size of approximately 0.5 grams as described by Hagan, P.L., et al. J. Nuc. Med., 26 1418-1423 (1985). Mice were kept in a sterile environment to prevent complications due to bacterial or viral infections. Biodistributions were performed as described by Halpern, S., et al., Cancer Res. 43, 5347-5355 (1983). Briefly, the radiolabeled haptens were injected intravenously in […], and the pharmacokinetics were evaluated at several time points post-injection. At these times, mice were sacrificed and weighed. Organs were removed, their weight recorded, and each organ was then washed in sterile PBS, pH 7.0, and fixed in formalin solution. Samples of blood, urine and feces also were collected and their weight similarly recorded. The organs, or a portion thereof, were transferred to clean tubes and their radioactive content was determined in a well-type gamma-counter.
Relative radioactive content of each organ was expressed as a percentage of injected dose per organ.
To indium-label the chelating agents for the prelocalization protocol, 5 »l of 0.1 mM chelating agent was combined with X »l of ¹¹¹InCl₃ (in 50 mM HCl) and (x+5) »l of 0.26 M ammonium citrate, pH 6.0. X was calculated by the following equation: X = 200 »Ci/A »Ci/»l [formula] where A is the specific activity of the ¹¹¹InCl₃ solution. The solution was vortexed and allowed to stand at room temperature for 15 minutes, after which incorporation of ¹¹¹In label into the chelating agent was determined as described for the premix protocol. If at least 95 percent of the ¹¹¹In was bound by the chelating agent, the material was then diluted to a final volume of 2 ml with isotonic (1.39 percent, w/v) sodium bicarbonate containing 1 mg/ml normal human serum albumin. This material (100 »l) then was injected into each tail vein of mice which had each been injected 24 hours earlier with 5 »g of ECH037.2 in 100 »l isotonic sodium bicarbonate containing 1 mg/ml normal human serum albumin.

O=C(O)CN(CCN(CC(=O)O)CC(=O)O)CCN(CC(=O)O)CC(=O)O [DTPA, diethylenetriaminepentaacetic acid]
binding to CHA255 (antibody CHA255): neither ⁹⁰Y³⁺ or ¹¹¹In³⁺ DTPA, alone, bound to CHA255

CCCCCCCCNC(=S)Nc1ccc(CC(CN(CC(=O)O)CC(=O)O)N(CC(=O)O)CC(=O)O)cc1 (centres unmarked) [OTUBE]
% DOSE PER GRAM, KIDNEY (T-380 tumors [1]; 24 hours): 0.5 % DOSE PER GRAM
% DOSE PER GRAM, LIVER (T-380 tumors [1]; 24 hours): 0.8 % DOSE PER GRAM
% DOSE PER GRAM, TUMOR (T-380 tumors [1]; 24 hours): 1.1 % DOSE PER GRAM
FECES (T-380 tumors [1]; 24 hours): 56.5% of total injected dose
TOTAL RECOV (T-380 tumors [1]; 24 hours): 68.9
URINE (T-380 tumors [1]; 24 hours): 8.9% of total injected dose
% DOSE PER GRAM, BLOOD (T-380 tumors [1]; 24 hours): 1.1 % DOSE PER GRAM
TUMOR/BLOOD (T-380 tumors [1]; 24 hours): 1.00
amount of hapten in the tumor (T-380 tumors [1]; 24 hrs., premix protocol): 1.1 percent injected dose/gram
Percent Injected Dose in Feces (T-380 tumors [1]; 24 hrs.): 56.5 Percent Injected Dose
% DOSE PER GRAM, KIDNEY (T-380 tumors [1]; 48 hours): 0.2 % DOSE PER GRAM
% DOSE PER GRAM, LIVER (T-380 tumors [1]; 48 hours): 0.6 % DOSE PER GRAM
% DOSE PER GRAM, TUMOR (T-380 tumors [1]; 48 hours): 0.7 % DOSE PER GRAM
FECES (T-380 tumors [1]; 48 hours): 68.4% of total injected dose
TOTAL RECOV (T-380 tumors [1]; 48 hours): 81.4
URINE (T-380 tumors [1]; 48 hours): 10.9% of total injected dose
% DOSE PER GRAM, BLOOD (T-380 tumors [1]; 48 hours): 0.5 % DOSE PER GRAM
TUMOR/BLOOD (T-380 tumors [1]; 48 hours): 1.40
injected material excreted in the feces (T-380 tumors [1]; 48 hrs. post injection, premix protocol): 68.4% of the injected material
amount of hapten in the tumor (T-380 tumors [1]; 48 hrs., premix protocol): 0.7 percent injected dose/gram
Percent Injected Dose in Feces (T-380 tumors [1]; 48 hrs.): 68.4 Percent Injected Dose
aqueous solubility [2]: Low aqueous solubility

O=C(O)Cc1ccc(NC(=S)Nc2ccc(CC(CN(CC(=O)O)CC(=O)O)N(CC(=O)O)CC(=O)O)cc2)cc1 (centres unmarked) [PHATUBE]
t1/2, Dissociation Half-Lives [3]: 1.19 h
% DOSE PER GRAM, KIDNEY (T-380 tumors [1]; 24 hours): 1.2 % DOSE PER GRAM
% DOSE PER GRAM, LIVER (T-380 tumors [1]; 24 hours): 1.7 % DOSE PER GRAM
% DOSE PER GRAM, TUMOR (T-380 tumors [1]; 24 hours): 8.4 % DOSE PER GRAM
FECES (T-380 tumors [1]; 24 hours): 22.0% of total injected dose
TOTAL RECOV (T-380 tumors [1]; 24 hours): 59.7
URINE (T-380 tumors [1]; 24 hours): 21.7% of total injected dose
% DOSE PER GRAM, BLOOD (T-380 tumors [1]; 24 hours): 6.2 % DOSE PER GRAM
TUMOR/BLOOD (T-380 tumors [1]; 24 hours): 1.35
Percent Injected Dose in Feces (T-380 tumors [1]; 24 hrs.): 22.0 Percent Injected Dose
% DOSE PER GRAM, KIDNEY (T-380 tumors [1]; 48 hours): 0.8 % DOSE PER GRAM
% DOSE PER GRAM, LIVER (T-380 tumors [1]; 48 hours): 1.1 % DOSE PER GRAM
% DOSE PER GRAM, TUMOR (T-380 tumors [1]; 48 hours): 6.9 % DOSE PER GRAM
FECES (T-380 tumors [1]; 48 hours): 34.9% of total injected dose
TOTAL RECOV (T-380 tumors [1]; 48 hours): 66.4
URINE (T-380 tumors [1]; 48 hours): 22.4% of total injected dose
% DOSE PER GRAM, BLOOD (T-380 tumors [1]; 48 hours): 3.7 % DOSE PER GRAM
TUMOR/BLOOD (T-380 tumors [1]; 48 hours): 1.86
Percent Injected Dose in Feces (T-380 tumors [1]; 48 hrs.): 34.9 Percent Injected Dose
fecal excretion (T-380 tumors [4]; 5 µg ECH037.2 24 hours earlier, all time points (4, 24, 48 hours), Figures 3-5, in words): high degree of fecal excretion
tumor/organ values (T-380 tumors [4]; Figures 6-8 (4, 24, 48 hours), in words): exceptional
